Laboratory results: patent US20070286898A1, “Intracellular Drug Delivery Improving Liposome” (ASTELLAS PHARMA INC., priority 2004, published 2007)
pIC50: −log10 of the molar value.

Tested on: Ehrlich's ascites carcinoma cell
Assay: Cell-killing effect upon Ehrlich's ascites carcinoma cell using WST
Type: cell-based
Conditions: 1×10^6 cells, read-out: IC50 (doxorubicin concentration by which 50% of cell-killing effect is obtained)
Protocol: The preparations prepared in Examples 1 and 2 and Comparative Examples 1, 2 and 3 were adjusted to various concentrations, and the resulting liquids were added to Ehrlich's ascites carcinoma cell (1×10^6 cells) to examine their cell-killing effects using WST.
Based on the results of plotting a relationship between the doxorubicin concentration in each preparation and its cell-killing effect, the doxorubicin concentration by which 50% of cell-killing effect is obtained was calculated (Table 1). By this, it was shown that the liposome preparations of the present invention show significant pharmacological effect in comparison with Comparative Examples.

COc1cccc2c1C(=O)c1c(O)c3c(c(O)c1C2=O)C[C@@](O)(C(=O)CO)C[C@@H]3O[C@H]1C[C@H](N)[C@H](O)[C@H](C)O1 [Comparative Example 3, doxorubicin]
pIC50: 5.46
